Measured values as given in US10443082B2, “Concentration gradient test reagent kit and testing method for use in bacterial/fungal drug susceptibility testing” (XINTRUM PHARMACEUTICALS, LTD, priority 2014, dated 2019).
≈ marks a conversion by molar mass, not a printed value. Each block holds one compound with its values, some of them ahead of it.

Tests used:
Assay type in all cases: cell-based
Streptococcus pneumoniae [1] = assay: MIC assay, concentration gradient agar strip method
Source text: (§1) Combination of the pre-fabricated antimicrobial drug and pre-fabricated culture medium to form a test strip unit: the films are removed from the bottom and top of the culture medium container, and the cells of the culture medium container can be inserted into the corresponding cells of the drug container. Then, the drug container is covered with a lid, and the pressure created in the process causes the antimicrobial drug at the bottoms of the cells to come into contact with the solid culture medium, and therefore dissolved in the agar culture medium to reach a specific concentration. To use the solid culture medium, a bacterial culture solution can be applied on the upper surface of the solid culture medium in each cell of the culture medium container. Then the culture medium container is covered with a lid, and then kept at 35° C. for 16-20 hours before the culture result is visually checked. When the drug concentration is higher than the MIC for the bacteria, no bacteria is observed on the surface of the gel. When the drug concentration is lower than the MIC, the bacteria grows on the surface of the culture medium and eventually develops a bacterial colony thereon. The lowest drug concentration at which no bacteria is observed on the gel surface is considered as the MIC of the antimicrobial drug for the strain under test.
(§2) This embodiment still uses a drug container with 12 round cells, and each round cell has internal dimensions of 4 mm×6 mm (bottom's radius×height). However, the experimental strains in use are Streptococcus pneumoniae. […] The bacterial lawn on the drug-free control agar blocks is expected to grow well; and • 8) performing an MIC assay on the test strains with the tube broth dilution method.

Streptococcus pneumoniae [2] = assay: MIC assay, tube broth dilution method; settings: read-out: MIC, Concentration (tube broth dilution method)
Source text: as §2

Enterobacter cloacae [3] = assay: MIC assay, concentration gradient agar strip method
Source text: as §1
(§3) A concentration gradient measurement method for use in bacterial/fungal drug susceptibility testing is provided. […] The bacterial lawn on the drug-free control agar blocks is expected to grow well; and • 8) in the meantime, performing an MIC assay on the test strains with tube broth dilution method.

Escherichia coli [4] = assay: as above
Source text: as §1, §3

Klebsiella oxytoca [5] = assay: as above
Source text: as §1, §3

Klebsiella pneumoniae [6] = assay: as above
Source text: as §1, §3

Proteus mirabilis [7] = assay: as above; settings: Strain No. 27 Proteus mirabilis
Source text: as §1, §3

Enterobacter cloacae [8] = assay: MIC assay, tube broth dilution method
Source text: as §3

Escherichia coli [9] = assay: MIC assay, tube broth dilution method; settings: read-out: MIC, Concentration (tube broth dilution method)
Source text: as §3

Klebsiella oxytoca [10] = assay: MIC assay, tube broth dilution method
Source text: as §3

Klebsiella pneumoniae [11] = assay: MIC assay, tube broth dilution method; settings: read-out: MIC, Concentration (tube broth dilution method)
Source text: as §3

Proteus mirabilis [12] = assay: MIC assay, tube broth dilution method; settings: Strain No. 27 Proteus mirabilis; read-out: MIC, Concentration (tube broth dilution method)
Source text: as §3

[13] = Strain No. 1 Streptococcus pneumoniae
[14] = Strain No. 2 Streptococcus pneumoniae
[15] = Strain No. 3 Streptococcus pneumoniae
[16] = Strain No. 4 Streptococcus pneumoniae
[17] = Strain No. 5 Streptococcus pneumoniae
[18] = Strain No. 6 Streptococcus pneumoniae
[19] = Strain No. 7 Streptococcus pneumoniae
[20] = Strain No. 8 Streptococcus pneumoniae
[21] = Strain No. 9 Streptococcus pneumoniae
[22] = Strain No. 10 Streptococcus pneumoniae
[23] = Strain No. 11 Streptococcus pneumoniae
[24] = Strain No. 12 Streptococcus pneumoniae
[25] = Strain No. 13 Streptococcus pneumoniae
[26] = Strain No. 14 Streptococcus pneumoniae
[27] = Strain No. 15 Streptococcus pneumoniae
[28] = Strain No. 16 Streptococcus pneumoniae
[29] = Strain No. 17 Streptococcus pneumoniae
[30] = Strain No. 18 Streptococcus pneumoniae
[31] = Strain No. 19 Streptococcus pneumoniae
[32] = Strain No. 20 Streptococcus pneumoniae
[33] = Strain No. 29 Enterobacter cloacae
[34] = Strain No. 25 Klebsiella oxytoca
[35] = Strain No. 1 Klebsiella pneumoniae
[36] = Strain No. 2 Klebsiella pneumoniae
[37] = Strain No. 3 Klebsiella pneumoniae
[38] = Strain No. 4 Klebsiella pneumoniae
[39] = Strain No. 5 Klebsiella pneumoniae
[40] = Strain No. 6 Klebsiella pneumoniae
[41] = Strain No. 7 Klebsiella pneumoniae
[42] = Strain No. 8 Klebsiella pneumoniae
[43] = Strain No. 18 Klebsiella pneumoniae
[44] = Strain No. 21 Klebsiella pneumoniae
[45] = Strain No. 24 Klebsiella pneumoniae

MIC (Streptococcus pneumoniae [1]; [13]): 0.12 µg/mL
MIC (Streptococcus pneumoniae [1]; [14]): 0.12 µg/mL
MIC (Streptococcus pneumoniae [1]; [15]): 0.25 µg/mL
MIC (Streptococcus pneumoniae [1]; [16]): 0.25 µg/mL
MIC (Streptococcus pneumoniae [1]; [17]): 0.5 µg/mL
MIC (Streptococcus pneumoniae [1]; [18]): 0.12 µg/mL
MIC (Streptococcus pneumoniae [1]; [19]): 0.25 µg/mL
MIC (Streptococcus pneumoniae [1]; [20]): 1 µg/mL
MIC (Streptococcus pneumoniae [1]; [21]): 0.25 µg/mL
MIC (Streptococcus pneumoniae [1]; [22]): 2 µg/mL
MIC (Streptococcus pneumoniae [1]; [23]): 0.12 µg/mL
MIC (Streptococcus pneumoniae [1]; [24]): 0.06 µg/mL
MIC (Streptococcus pneumoniae [1]; [25]): 0.06 µg/mL
MIC (Streptococcus pneumoniae [1]; [26]): 2 µg/mL
MIC (Streptococcus pneumoniae [1]; [27]): 0.12 µg/mL
MIC (Streptococcus pneumoniae [1]; [28]): 0.12 µg/mL
MIC (Streptococcus pneumoniae [1]; [29]): 1 µg/mL
MIC (Streptococcus pneumoniae [1]; [30]): 0.5 µg/mL
MIC (Streptococcus pneumoniae [1]; [31]): 0.25 µg/mL
MIC (Streptococcus pneumoniae [1]; [32]): 0.12 µg/mL
MIC (Streptococcus pneumoniae [2]; [13]): 0.12 µg/mL (≈ 0.328 µM)
MIC (Streptococcus pneumoniae [2]; [14]): 0.12 µg/mL (≈ 0.328 µM)
MIC (Streptococcus pneumoniae [2]; [15]): 0.12 µg/mL (≈ 0.328 µM)
MIC (Streptococcus pneumoniae [2]; [16]): 0.25 µg/mL (≈ 0.684 µM)
MIC (Streptococcus pneumoniae [2]; [17]): 0.5 µg/mL (≈ 1.37 µM)
MIC (Streptococcus pneumoniae [2]; [18]): 0.12 µg/mL (≈ 0.328 µM)
MIC (Streptococcus pneumoniae [2]; [19]): 0.25 µg/mL (≈ 0.684 µM)
MIC (Streptococcus pneumoniae [2]; [20]): 0.5 µg/mL (≈ 1.37 µM)
MIC (Streptococcus pneumoniae [2]; [21]): 0.25 µg/mL (≈ 0.684 µM)
MIC (Streptococcus pneumoniae [2]; [22]): 2 µg/mL (≈ 5.47 µM)
MIC (Streptococcus pneumoniae [2]; [23]): 0.12 µg/mL (≈ 0.328 µM)
MIC (Streptococcus pneumoniae [2]; [24]): 0.06 µg/mL (≈ 0.164 µM)
MIC (Streptococcus pneumoniae [2]; [25]): 0.12 µg/mL (≈ 0.328 µM)
MIC (Streptococcus pneumoniae [2]; [26]): 2 µg/mL (≈ 5.47 µM)
MIC (Streptococcus pneumoniae [2]; [27]): 0.12 µg/mL (≈ 0.328 µM)
MIC (Streptococcus pneumoniae [2]; [28]): 0.12 µg/mL (≈ 0.328 µM)
MIC (Streptococcus pneumoniae [2]; [29]): 1 µg/mL (≈ 2.74 µM)
MIC (Streptococcus pneumoniae [2]; [30]): 1 µg/mL (≈ 2.74 µM)
MIC (Streptococcus pneumoniae [2]; [31]): 0.12 µg/mL (≈ 0.328 µM)
MIC (Streptococcus pneumoniae [2]; [32]): 0.12 µg/mL (≈ 0.328 µM)
Structure (SMILES): CC1(C)S[C@@H]2[C@H](NC(=O)[C@H](N)c3ccc(O)cc3)C(=O)N2[C@H]1C(=O)O [Amoxicillin]

MIC (Enterobacter cloacae [3]; Strain No. 28 Enterobacter cloacae): 16 µg/mL
MIC, Concentration (gradient agar strip method) (Enterobacter cloacae [3]; [33]): 16.0 µg/mL
MIC (Escherichia coli [4]; Strain No. 9 Escherichia coli): 8 µg/mL
MIC (Escherichia coli [4]; Strain No. 10 Escherichia coli): 1 µg/mL
MIC (Escherichia coli [4]; Strain No. 11 Escherichia coli): 2 µg/mL
MIC (Escherichia coli [4]; Strain No. 12 Escherichia coli): 4 µg/mL
MIC (Escherichia coli [4]; Strain No. 13 Escherichia coli): 4 µg/mL
MIC (Escherichia coli [4]; Strain No. 14 Escherichia coli): 8 µg/mL
MIC (Escherichia coli [4]; Strain No. 15 Escherichia coli): 2 µg/mL
MIC (Escherichia coli [4]; Strain No. 16 Escherichia coli): 4 µg/mL
MIC (Escherichia coli [4]; Strain No. 17 Escherichia coli): 4 µg/mL
MIC (Escherichia coli [4]; Strain No. 19 Escherichia coli): 16 µg/mL
MIC (Escherichia coli [4]; Strain No. 20 Escherichia coli): 4 µg/mL
MIC (Escherichia coli [4]; Strain No. 23 Escherichia coli): 8 µg/mL
MIC (Escherichia coli [4]; Strain No. 26 Escherichia coli): 4 µg/mL
MIC (Escherichia coli [4]; Strain No. 30 Escherichia coli): 8 µg/mL
MIC (Klebsiella oxytoca [5]; Strain No. 22 Klebsiella oxytoca): 8 µg/mL
MIC, Concentration (gradient agar strip method) (Klebsiella oxytoca [5]; [34]): 8.0 µg/mL
MIC (Klebsiella pneumoniae [6]; [35]): 4 µg/mL
MIC (Klebsiella pneumoniae [6]; [36]): 4 µg/mL
MIC (Klebsiella pneumoniae [6]; [37]): 4 µg/mL
MIC (Klebsiella pneumoniae [6]; [38]): 2 µg/mL
MIC (Klebsiella pneumoniae [6]; [39]): 2 µg/mL
MIC (Klebsiella pneumoniae [6]; [40]): 4 µg/mL
MIC (Klebsiella pneumoniae [6]; [41]): 8 µg/mL
MIC (Klebsiella pneumoniae [6]; [42]): 4 µg/mL
MIC (Klebsiella pneumoniae [6]; [43]): 16 µg/mL
MIC (Klebsiella pneumoniae [6]; [44]): 8 µg/mL
MIC (Klebsiella pneumoniae [6]; [45]): 4 µg/mL
MIC (Proteus mirabilis [7]): 8 µg/mL
MIC (Enterobacter cloacae [8]; Strain No. 28 Enterobacter cloacae, read-out: MIC, Concentration (tube broth dilution method)): 16 µg/mL (≈ 35.1 µM)
MIC, Concentration (tube broth dilution method) (Enterobacter cloacae [8]; [33]): 16.0 µg/mL (≈ 35.1 µM)
MIC (Escherichia coli [9]; Strain No. 9 Escherichia coli): 8 µg/mL (≈ 17.6 µM)
MIC (Escherichia coli [9]; Strain No. 10 Escherichia coli): 1 µg/mL (≈ 2.2 µM)
MIC (Escherichia coli [9]; Strain No. 11 Escherichia coli): 4 µg/mL (≈ 8.78 µM)
MIC (Escherichia coli [9]; Strain No. 12 Escherichia coli): 4 µg/mL (≈ 8.78 µM)
MIC (Escherichia coli [9]; Strain No. 13 Escherichia coli): 4 µg/mL (≈ 8.78 µM)
MIC (Escherichia coli [9]; Strain No. 14 Escherichia coli): 8 µg/mL (≈ 17.6 µM)
MIC (Escherichia coli [9]; Strain No. 15 Escherichia coli): 4 µg/mL (≈ 8.78 µM)
MIC (Escherichia coli [9]; Strain No. 16 Escherichia coli): 4 µg/mL (≈ 8.78 µM)
MIC (Escherichia coli [9]; Strain No. 17 Escherichia coli): 4 µg/mL (≈ 8.78 µM)
MIC (Escherichia coli [9]; Strain No. 19 Escherichia coli): 16 µg/mL (≈ 35.1 µM)
MIC (Escherichia coli [9]; Strain No. 20 Escherichia coli): 4 µg/mL (≈ 8.78 µM)
MIC (Escherichia coli [9]; Strain No. 23 Escherichia coli): 8 µg/mL (≈ 17.6 µM)
MIC (Escherichia coli [9]; Strain No. 26 Escherichia coli): 4 µg/mL (≈ 8.78 µM)
MIC (Escherichia coli [9]; Strain No. 30 Escherichia coli): 8 µg/mL (≈ 17.6 µM)
MIC (Klebsiella oxytoca [10]; Strain No. 22 Klebsiella oxytoca, read-out: MIC, Concentration (tube broth dilution method)): 8 µg/mL (≈ 17.6 µM)
MIC, Concentration (tube broth dilution method) (Klebsiella oxytoca [10]; [34]): 8.0 µg/mL (≈ 17.6 µM)
MIC (Klebsiella pneumoniae [11]; [35]): 4 µg/mL (≈ 8.78 µM)
MIC (Klebsiella pneumoniae [11]; [36]): 4 µg/mL (≈ 8.78 µM)
MIC (Klebsiella pneumoniae [11]; [37]): 2 µg/mL (≈ 4.39 µM)
MIC (Klebsiella pneumoniae [11]; [38]): 2 µg/mL (≈ 4.39 µM)
MIC (Klebsiella pneumoniae [11]; [39]): 2 µg/mL (≈ 4.39 µM)
MIC (Klebsiella pneumoniae [11]; [40]): 4 µg/mL (≈ 8.78 µM)
MIC (Klebsiella pneumoniae [11]; [41]): 8 µg/mL (≈ 17.6 µM)
MIC (Klebsiella pneumoniae [11]; [42]): 4 µg/mL (≈ 8.78 µM)
MIC (Klebsiella pneumoniae [11]; [43]): 16 µg/mL (≈ 35.1 µM)
MIC (Klebsiella pneumoniae [11]; [44]): 8 µg/mL (≈ 17.6 µM)
MIC (Klebsiella pneumoniae [11]; [45]): 4 µg/mL (≈ 8.78 µM)
MIC (Proteus mirabilis [12]): 4 µg/mL (≈ 8.78 µM)
Structure (SMILES): CO/N=C(\C(=O)N[C@@H]1C(=O)N2C(C(=O)O)=C(COC(C)=O)CS[C@H]12)c1csc(N)n1 [Cefotaxime]
